Several values for one entry are separate records, joined by “and”; a condition that tells them apart may be missing. Equal values may be shown once. Read-outs that look alike come from different tables or passages of the source. Ends that are not written are not given here.
What was measured:
Botrytis cinerea = conditions: 2% malt extract medium, 1.5–2×10^3 spores/ml, room temperature, 3d, visual screening; lowest concentration with no visible growth; at least two independent replicates
Pseudomonas corrugata = conditions: LB-medium, 27°C
[1] = tested on: Pseudomonas syringae pv. tomato; conditions: LB-medium, 27°C
Alternaria alternata = conditions: 2% malt extract medium, 1.5–2×10^3 spores/ml, room temperature, 3d, OD590 nm; lowest concentration with no visible growth; at least two independent replicates
Xanthomonas vesicatoria = conditions: LB-medium, 27°C
[2] = tested on: Pseudomonas syringae pv. syringae; conditions: LB-medium, 27°C
[3] = tested on: Clavibacter michiganensis ssp. michiganensis; conditions: LB-medium, 27°C
[4] = tested on: Pectobacterium carotovorum ssp. carotovorum; conditions: LB-medium, 27°C
Cladosporium herbarum = conditions: 2% malt extract medium, 1.5–2×10^3 spores/ml, room temperature, 3d, visual screening; lowest concentration with no visible growth; at least two independent replicates
human erythrocytes = experiment: Hemolytic activity (hemoglobin release); type: cell-based
Protocol: The hemolytic activity of the peptides was evaluated by determining hemoglobin release of suspensions of fresh human erythrocytes at 405 nm. Human red blood cells (Deutscher Blutspendedienst, München, Germany) were centrifuged and washed three times with Tris-buffer (10 mM Tris, 150 mM NaCl, pH 7.4). 80 µl of cells (1.5×10^9 cells/ml) were added to 20 µl of the peptide solution in 96-well plates and incubated for 45 min at 37°C. Final peptide concentrations were 0, 20, 50, 100 and 200 µg/ml. After centrifugation (1,500 g, 5 min, 20°C) 30 µl aliquots of the supernatant were transferred to 96-well plates containing 100 µl of water and released hemoglobin was determined using a microplate reader (OD405 nm). 100% hemolysis was determined with 2% SDS.

[5] = tested on: Arabidopsis mesophyll protoplasts; experiment: Phytotoxicity on plant protoplasts; type: cell-based; conditions: 1 h incubation, light microscope; for Phytotoxicity: peptide concentration where protoplasts show first signs of cytoplasmic degradation: 0, 10, 100, 200 µg/ml
Protocol: Phytotoxicity was measured on Arabidopsis mesophyll protoplasts prepared from leaves as described in [80]. 80 µl protoplast suspension containing about 5000 protoplasts were incubated with 20 µl peptide solution. Final peptide concentrations were 0, 10, 100 and 200 µg/ml. The phytotoxic effect of antimicrobial peptides was observed after 1 h with a light microscope. Hints to cell death are loss of spherical shape, chloroplast release and/or agglomeration of protoplasts.

[6] = tested on: P. syringae pv. tomato DC3000; conditions: peptide concentrations up to 100 µg/ml, sprayed; cfu 30 min after treatment
P. syringae = conditions: Table S5; 10 µg/ ml peptide; organism P. syringae pv syrimgae [sic]
tested plant pathogens = experiment: Microdilution assay, activity summarised over several tested plant pathogens; type: cell-based; conditions: statement over some / the majority of the tested plant pathogens or bacteria
Protocol: In-vitro inhibition assays were performed in sterile flat-bottom 96-well polypropylene-plates (Greiner bio-one, Frickenhausen, Germany). 10 µl (antibacterial assay) or 20 µl (antifungal assay) of each concentration were loaded per well. Fresh bacterial colonies were transferred into LB-medium, grown to an OD600 nm of 0.08–0.1 and diluted 1∶100 with medium. 90 µl of this suspension containing about 10^5 CFU/ml of bacteria were added to each well resulting in final peptide concentrations from 0 to 100 µg/ml. After incubation at 27°C for 1–2d bacterial growth was analyzed by measuring the OD590 nm using a Tecan Genios microplate reader (Crailsheim, Germany).
Spores of plant pathogenic fungi were collected by washing sporulating cultures with water. Spore concentration was determined by haematocytometer and adjusted to 1.5–2×10^3 spores/ml in 2% malt extract medium. 80 µl of fungal spores were added per well resulting in final peptide concentrations from 0 to 100 µg/ml. After incubation at room temperature for 3d on a rotary shaker (300 rpm), fungal growth was determined by measuring the OD590 nm (Alternaria sp.) or by visual screening of the plates (Botrytis sp., Cladosporium sp.). The lowest peptide concentration, where no visible microbial growth could be detected, was determined for each organism-peptide combination and referred to as the minimal inhibitory concentration (MIC). At least two independent replicates were performed.

[7] = about 10^5 CFU/ml, 1–2d, OD590 nm, at least two independent replicates

Substance	MIC (Botrytis cinerea) [µg/mL]	MIC (Pseudomonas corrugata; [7]) [µg/mL]	MIC [1, 7] [µg/mL]	MIC (Alternaria alternata) [µg/mL]	MIC (Xanthomonas vesicatoria; [7]) [µg/mL]	MIC [2, 7] [µg/mL]	MIC [3, 7] [µg/mL]	MIC [4, 7] [µg/mL]	MIC (Cladosporium herbarum) [µg/mL]	MIC (Pseudomonas corrugata; Table 4, incubation period 2d) [µg/mL]	MIC ([1]; Table 4, incubation period 1d) [µg/mL]	MIC (Xanthomonas vesicatoria; Table 4, incubation period 2d) [µg/mL]	MIC ([2]; Table 4, incubation period 1d) [µg/mL]	MIC ([3]; Table 4, incubation period 2d) [µg/mL]	phytotoxicity to plant protoplasts (in words) [5]	Phytotoxicity: peptide concentration where protoplasts show first signs of cytoplasmic degradation [5] [µg/mL]	MIC ([4]; Table 4, incubation period 1d) [µg/mL]	growth inhibition on tomato leaves [6] [%]	Growth inhibition of bacteria/fungi on leaf surface (P. syringae) [%]	other results
LRALAKALKHKL-NH2 [SP11]	>100	10	5	>100	>40	>40	>40	>40	20	–	–	–	–	–	–	–	–	–	–	–
LRFLKKALKKLF-NH2 [SP10-2]	–	–	–	–	–	–	–	–	–	0.5	0.5	0.25	0.1	0.25	very low phytotoxicity	200	1.0	90	50	Hemolytic activity: peptide concentration leading to 25% hemoglobin release from human blood cells (human erythrocytes): > 200 µg/mL
LRFLKKILKHLF-NH2 [SP10]	>100	–	–	>100	–	–	–	–	10	–	–	–	–	–	–	–	–	–	–	–
LRIIKKILKKLI-NH2 [SP10-5]	–	–	–	–	–	–	–	–	–	0.5	0.25	0.25	0.5	0.5	very low phytotoxicity	200	2.5	90	70	–
LRKLKKILKKLF-NH2 [SP10-10]	–	–	–	–	–	–	–	–	–	0.25	0.5	0.1	0.25	0.25	–	–	2.5	–	–	Hemolytic activity: peptide concentration leading to 25% hemoglobin release from human blood cells (human erythrocytes; Table 4, 45 min, 37°C, highest concentration tested 200 µg/ml): – (no value indicates none detectable hemolytic activity up to the highest concentration tested)
RKKRLKLLKR LV-NH2 [SP1-D]	> 40	20	5	20	40	5	40	> 40	20	–	–	–	–	–	–	–	–	–	–	–
RKKRLKLLKRLL-NH2 [SP1-1]	–	–	–	–	–	–	–	–	–	<0.1	–	0.1	0.1	2.5	very low phytotoxicity	200	>10	90	40	–
RKKRLKLLKRLV-NH2 [SP1]	>100	–	–	>100	–	–	–	–	10	–	–	–	–	–	–	–	–	–	–	active concentrations (MIC) (tested plant pathogens): 1 to 5 µg/mL and 1 to 2 µg/mL
RKRAARLLKRLV-NH2 [SP2]	>100	5	2	>100	2	2	2	>40	20	–	–	–	–	–	–	–	–	–	–	active concentrations (MIC) (tested plant pathogens): 1 to 5 µg/mL and 1 to 2 µg/mL
RKRFARFAKRAV-NH2 [SP3]	>100	>40	5	>100	>40	>40	20	>40	40	–	–	–	–	–	–	–	–	–	–	–
